Assay results published in patent publication US12234504B1 (priority 2023, dated 2025).
Positions of bridges follow the written chain, without caps; N, C: chain ends. Non-standard residues stand in square brackets, D forms with d. Residues, ends and D or L forms follow the SMILES beside them. *: point of attachment. Ileψ(thiazoline)Cys = CC[C@H](C)[C@H](N)C1=N[C@H](C(=O)*)CS1; dOrn = NCCC[C@@H](N)C(=O)O

How the values were obtained:
E. coli DNA gyrase [1] = target: T1, E. coli DNA gyrase (Escherichia coli, UniProt P0AES4+P0AES6); format: biochemical; details: for effect on SYBR Green fluorescence intensity (in words): 20 μM compound, FIG. 7A; for fluorescence intensity of the DNA samples (in words): validation with 10 antibiotics, FIG. 5A
T1 construct: made in house
T1 sequence (P0AES4 whole entry, one chain of several): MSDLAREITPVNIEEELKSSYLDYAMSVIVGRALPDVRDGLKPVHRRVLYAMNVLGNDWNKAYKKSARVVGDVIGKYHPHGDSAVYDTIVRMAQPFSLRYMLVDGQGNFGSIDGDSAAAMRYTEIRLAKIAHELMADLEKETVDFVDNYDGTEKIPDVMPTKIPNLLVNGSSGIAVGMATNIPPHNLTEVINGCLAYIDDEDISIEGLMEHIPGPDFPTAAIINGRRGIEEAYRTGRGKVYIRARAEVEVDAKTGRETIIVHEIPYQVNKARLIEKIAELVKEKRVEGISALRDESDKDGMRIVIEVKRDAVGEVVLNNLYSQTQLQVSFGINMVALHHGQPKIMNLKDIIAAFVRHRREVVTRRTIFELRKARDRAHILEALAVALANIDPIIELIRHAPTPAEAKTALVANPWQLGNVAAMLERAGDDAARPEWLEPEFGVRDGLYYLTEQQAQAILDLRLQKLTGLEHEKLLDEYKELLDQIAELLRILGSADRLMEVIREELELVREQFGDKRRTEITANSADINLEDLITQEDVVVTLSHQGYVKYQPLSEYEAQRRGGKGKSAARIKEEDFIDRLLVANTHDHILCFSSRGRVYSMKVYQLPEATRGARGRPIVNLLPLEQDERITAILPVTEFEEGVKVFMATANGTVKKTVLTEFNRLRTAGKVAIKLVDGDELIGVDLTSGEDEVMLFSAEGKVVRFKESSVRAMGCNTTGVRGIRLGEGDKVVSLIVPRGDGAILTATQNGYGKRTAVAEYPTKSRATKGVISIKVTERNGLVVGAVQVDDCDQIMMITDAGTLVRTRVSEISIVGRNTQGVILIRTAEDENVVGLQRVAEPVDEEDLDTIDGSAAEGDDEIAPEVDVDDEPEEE

E. coli DNA gyrase [2] = target: T1, E. coli DNA gyrase; format: biochemical; details: 50 μM compound; for hit in HTS pilot screen (inhibition ≥50% cutoff): duplicate; for Fluorescent Intensity #1 / Fluorescent Intensity #2 / Mean Fluorescent Intensity: 50-compound library screen; for Fluorescent Intensity #1: duplicate 1; for Fluorescent Intensity #1 / Fluorescent Intensity #2: low fluorescence = gyrase poison; for Fluorescent Intensity #2: duplicate 2; for Mean Fluorescent Intensity: mean of duplicates; for fluorescence intensity compared with negative controls (in words): HTS screen
Description: FIGS. 6A-6B. High throughput screening (HTS) pilot screen of the 50-compound library for E. coli DNA gyrase poisoning inhibitors in duplicate. A final compound concentration of 50 μM was used. […] (A) Fluorescence raw data.
A Fluorescence-Based, T5 Exonuclease-Amplified DNA Cleavage Assay to Identify Poisoning Inhibitors for E. coli DNA Gyrase.
For negative control experiments, 1% DMSO was used. […] 0.5 mg/mL of proteinase K was then added to the reaction mixtures to digest DNA gyrase at 50° C. for 30 min. After the DNA samples were diluted 100 times using 1×NEB buffer 4 (20 mM Tris-Acetate, pH 7.9, 50 mM KAc, 10 mM Mg(AC)2, and 1 mM DTT), 30 μL of each DNA sample was transfer to a well of a 384-well plate. 200 nM of T5 exonuclease was used to digest DNA fragment for 2 hours at 37° C. 1×SYBR™ Green was added to all DNA samples. Fluorescence intensity was measured using a Biotek microplate reader with excitation wavelength of 497 nm and emission wavelength of 525 nm.
Z′ was calculated by the following equation: […]

E. coli DNA gyrase [3] = target: T1, E. coli DNA gyrase; test: Agarose gel-based DNA gyrase-mediated DNA cleavage assay; format: biochemical; details: FIG. 7B
Description: FIGS. 2A-2F. Agarose gel-based DNA gyrase cleavage assays were performed as described in Materials and Methods. […] Lane 7 is Lambda DNA HindIII digest as the molecular standard. […] 500 ng of a DNA HindIII digest was digested using 50 nM of T5E in 20 μL of 1× gyrase-mediated DNA cleavage buffer (20 mM Tris-HCl pH 8, 50 mM KAc, 10 mM MgCl2, 2 mM DTT, 1 mM ATP, 0.1 mg/mL BSA) for 30 min in the presence of different concentrations of SDS. […] (E) Effects of sarkosyl on T5 exonuclease (T5E). 500 ng of a DNA HindIII digest was digested using 50 nM of T5E in 20 μL of 1× gyrase-mediated DNA cleavage buffer for 30 min in the presence of different concentrations of sarkosyl. […] Lanes 1-7 contained 0, 5, 10, 20, 30, 40, and 50 nM of T5 exonuclease, respectively.
DNA Gyrase and Human DNA Topoisomerase IIα Mediated DNA Cleavage Assay.
250 ng of relaxed plasmid pBR322 and 20 nM of E. coli DNA gyrase or human DNA topoisomerase IIα were mixed and incubated in 1×gyrase-mediated DNA cleavage buffer (20 mM Tris-HCl pH 8, 50 mM KAc, 10 mM MgCl2, 2 mM DTT, 1 mM ATP, 0.1 mg/mL BSA) at 37° C. for 15 minutes in the presence of an inhibitor or compound. After the incubation, 0.2% SDS and 0.1 mg/ml proteinase K were added to the reaction mixtures to trap the topoisomerase-inhibitor-DNA complex and digest the topoisomerase, respectively, by incubating for an additional 30 min at 37° C. DNA samples were analyzed in 1% agarose gel containing […] ethidium bromide in 1′TAE buffer and photographed under UV light. […] Etoposide was used as a positive control for human DNA topoisomerase IIα-mediated DNA cleavage assays.

T5 exonuclease = target: T2, T5 exonuclease (Escherichia phage T5, UniProt P06229); test: Detergent inhibition of T5 exonuclease on lambda DNA HindIII digest; format: biochemical; set-up: detergent concentration that inhibits T5 exonuclease: dose or concentration left out as unconfirmed
T2 construct: made in house
T2 sequence (P06229 whole entry): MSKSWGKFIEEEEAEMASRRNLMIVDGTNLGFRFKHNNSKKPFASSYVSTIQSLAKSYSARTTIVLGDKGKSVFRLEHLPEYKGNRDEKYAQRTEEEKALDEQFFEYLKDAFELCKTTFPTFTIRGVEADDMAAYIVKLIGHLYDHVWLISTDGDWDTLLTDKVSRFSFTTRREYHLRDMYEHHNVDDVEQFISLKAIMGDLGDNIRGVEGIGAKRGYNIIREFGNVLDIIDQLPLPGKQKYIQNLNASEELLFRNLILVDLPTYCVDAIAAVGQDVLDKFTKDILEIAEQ
Description: FIGS. 2A-2F. Agarose gel-based DNA gyrase cleavage assays were performed as described in Materials and Methods. […] Lane 7 is Lambda DNA HindIII digest as the molecular standard. […] (C) The appearance and disappearance of the gyrase-mediated linear band of plasmid pBR322 is dependent of the E. coli DNA gyrase concentration. High concentrations of E. coli DNA gyrase also cause disappearance of the supercoiled plasmid in the gyrase-mediated DNA cleavage assays. […] 500 ng of a DNA HindIII digest was digested using 50 nM of T5E in 20 μL of 1× gyrase-mediated DNA cleavage buffer (20 mM Tris-HCl pH 8, 50 mM KAc, 10 mM MgCl2, 2 mM DTT, 1 mM ATP, 0.1 mg/mL BSA) for 30 min in the presence of different concentrations of SDS. […] contained 0.000625, 0.00125, 0.0025, 0.005, 0.0125, and 0.025%, respectively. (E) Effects of sarkosyl on T5 exonuclease (T5E). 500 ng of a DNA HindIII digest was digested using 50 nM of T5E in 20 μL of 1× gyrase-mediated DNA cleavage buffer for 30 min in the presence of different concentrations of sarkosyl. Lanes 3 to 10 contained 0.005, 0.0125, 0.015, 0.02, 0.025, 0.05, 0.125, and 0.25%, respectively. (F) 50 nM of T5 exonuclease completely digested 500 ng of a DNA HindIII digest in 1× gyrase-mediated DNA cleavage buffer in the presence of 0.00125%. Lanes 1-7 contained 0, 5, 10, 20, 30, 40, and 50 nM of T5 exonuclease, respectively.
FIG. 3. […]

E. coli DNA gyrase [4] = target: T1, E. coli DNA gyrase; details: read-out: IC50 against E. coli DNA gyrase; cited from earlier work

| Molecule | hit in HTS pilot screen (inhibition ≥50% cutoff) (E. coli DNA gyrase [2]) | Fluorescent Intensity #1 (E. coli DNA gyrase [2]) | Fluorescent Intensity #2 (E. coli DNA gyrase [2]) | Mean Fluorescent Intensity (E. coli DNA gyrase [2]) | further results |
| --- | --- | --- | --- | --- | --- |
| COc1cccc2c1C(=O)c1c(O)c3c(c(O)c1C2=O)C[C@@](O)(C(=O)CO)C[C@@H]3O[C@H]1C[C@H](N)[C@H](O)[C@H](C)O1 [doxorubicin] | hits and false positive | – | – | – | effect on SYBR Green fluorescence intensity (in words) (E. coli DNA gyrase [1]): quenched; gyrase-mediated DNA cleavage / gyrase poisoning (in words) (E. coli DNA gyrase [3]): did not cause gyrase-mediated DNA cleavage |
| O=C[C@H](O)[C@@H](O)[C@H](O)[C@H](O)CO [D-glucose] | – | 4444 | 5984 | 5214 | – |
| CCN(CC)CCCC(C)Nc1ccnc2cc(Cl)ccc12 (stereo not shown) [chloroquine] | – | – | 8002 | – | – |
| CC[C@H](C)[C@H](N)C1=N[C@H](C(=O)N[C@@H](CC(C)C)C(=O)N[C@H](CCC(=O)O)C(=O)N[C@H](C(=O)N[C@H]2CCCCNC(=O)[C@H](CC(N)=O)NC(=O)[C@@H](CC(=O)O)NC(=O)[C@H](Cc3cnc[nH]3)NC(=O)[C@@H](Cc3ccccc3)NC(=O)[C@H]([C@@H](C)CC)NC(=O)[C@@H](CCCN)NC2=O)[C@@H](C)CC)CS1 [bacitracin] ({Ileψ(thiazoline)Cys}-L[dE]IK[dOrn]I[dF]H[dD]N; lactam 4-C) | – | 7743 | 6533 | 7138 | – |
| CC[C@@]1(O)C(=O)OCc2c1cc1n(c2=O)Cc2cc3c(CN(C)C)c(O)ccc3nc2-1 [topotecan] | – | – | – | – | effect on SYBR Green fluorescence intensity (in words) (E. coli DNA gyrase [1]): did not reduce the fluorescence intensity; fluorescence intensity compared with negative controls (in words) (E. coli DNA gyrase [2]): significant low fluorescence signals; gyrase-mediated DNA cleavage / gyrase poisoning (in words) (E. coli DNA gyrase [3]): do not possess gyrase poisoning properties |
| CCn1cc(C(=O)O)c(=O)c2cc3c(cc21)OCO3 [oxolinic acid] | hits | – | – | – | – |
| CCn1cc(C(=O)O)c(=O)c2cc(F)c(N3CCNC(C)C3)c(F)c21 (stereo not shown) [lomefloxacin] | hits | – | – | – | – |
| Nc1ccc(S(N)(=O)=O)cc1 [sulfanilamide] | – | – | – | – | fluorescence intensity of the DNA samples (in words) (E. coli DNA gyrase [1]): high |
| O=C[C@H](O)[C@@H](O)[C@@H](O)[C@H](O)CO [D-galactose] | – | 4111 | 6277 | 5194 | – |
| CCN1CCN(c2cc3c(cc2F)c(=O)c(C(=O)O)cn3C2CC2)CC1 [enrofloxacin] | hits | – | – | – | – |
| CC1(C)S[C@@H]2[C@H](NC(=O)[C@H](N)c3ccccc3)C(=O)N2[C@H]1C(=O)O [ampicillin] | – | – | – | – | fluorescence intensity of the DNA samples (in words) (E. coli DNA gyrase [1]): high |
| CCn1cc(C(=O)O)c(=O)c2cc(F)c(N3CCNCC3)cc21 [norfloxacin] | hits | – | – | – | – |
| CS[C@H]1SC[C@H]2C(=O)N(C)[C@@H](C(C)C)C(=O)OC[C@@H](NC(=O)c3cnc4ccccc4n3)C(=O)N[C@@H](C)C(=O)N(C)[C@@H]1C(=O)N(C)[C@@H](C(C)C)C(=O)OC[C@@H](NC(=O)c1cnc3ccccc3n1)C(=O)N[C@@H](C)C(=O)N2C [echinomycin] | – | – | – | – | effect on SYBR Green fluorescence intensity (in words) (E. coli DNA gyrase [1]): did not reduce the fluorescence intensity; fluorescence intensity compared with negative controls (in words) (E. coli DNA gyrase [2]): significant low fluorescence signals; gyrase-mediated DNA cleavage / gyrase poisoning (in words) (E. coli DNA gyrase [3]): do not possess gyrase poisoning properties |
| CCCCCCCCCCCCOS(=O)(=O)[O-].[Na+] [SDS, sodium dodecyl sulfate] | – | – | – | – | effect on T5 exonuclease activity (in words) (T5 exonuclease; 50 nM T5E, FIG. 2D/2E, SDS low concentrations, sarkosyl e.g. 0.015%): completely inhibited T5 exonuclease activity; detergent concentration that inhibits T5 exonuclease (T5 exonuclease; FIG. 3): ≥ 0.05% |
| CCOc1ccc2nc3cc(N)ccc3c(N)c2c1 [etharcridine] | – | – | – | – | effect on SYBR Green fluorescence intensity (in words) (E. coli DNA gyrase [1]): did not reduce the fluorescence intensity; fluorescence intensity compared with negative controls (in words) (E. coli DNA gyrase [2]): significant low fluorescence signals; gyrase-mediated DNA cleavage / gyrase poisoning (in words) (E. coli DNA gyrase [3]): do not possess gyrase poisoning properties |
| Cc1ccc(C(=O)Nc2ccc(S(=O)(=O)O)c3cc(S(=O)(=O)O)cc(S(=O)(=O)O)c23)cc1NC(=O)c1cccc(NC(=O)Nc2cccc(C(=O)Nc3cc(C(=O)Nc4ccc(S(=O)(=O)O)c5cc(S(=O)(=O)O)cc(S(=O)(=O)O)c45)ccc3C)c2)c1 [suramin] | – | – | – | – | effect on SYBR Green fluorescence intensity (in words) (E. coli DNA gyrase [1]): did not reduce the fluorescence intensity; fluorescence intensity compared with negative controls (in words) (E. coli DNA gyrase [2]): significant low fluorescence signals; gyrase-mediated DNA cleavage / gyrase poisoning (in words) (E. coli DNA gyrase [3]): do not possess gyrase poisoning properties |
| polymyxin B sulfate salt | – | 6067 | 10508 | 8287.5 | fluorescence intensity of the DNA samples (in words) (E. coli DNA gyrase [1]): high |
| CCn1cc(C(=O)O)c(=O)c2ccc(C)nc21 [nalidixic acid] | hits | – | – | – | fluorescence intensity compared with negative controls (in words) (E. coli DNA gyrase [2]): much lower; IC50 (E. coli DNA gyrase [4]): > 50 µM |
| CN(C)[C@@H]1C(O)=C(C(N)=O)C(=O)[C@@]2(O)C(O)=C3C(=O)c4c(O)cccc4[C@@](C)(O)[C@H]3C[C@@H]12 [tertracycline] | – | 9594 | 9920 | 9757 | – |
| O=C[C@H](O)[C@@H](O)[C@@H](O)CO [L-arabinose] | – | 4824 | 7032 | 5928 | – |
